According to patent publication US4123456A, “Novel 11-hydroxy-9-keto-5,6-cis-13,14-cis-prostadienoic acid derivatives” (American Cyanamid Company, priority 1977, dated 1978):

Assays:
[1] = system: ulcerogenic properties of indomethacin; experiment: protection against the ulcerogenic properties of indomethacin; assay type: in vivo, Rats; details: 2.5 or lower considered active
Method: The compounds of this invention provide protection against the ulcerogenic properties of indomethacin. This assay was carried out in the following manner.
Rats were starved for 48 hours (water was given ad libitum). Indomethacin (20 mg./kg. of body weight) was administered by the subutaneous route and one-half the dose of the test compound was administered by gavage at the same time. After 3 hours, the second half of the test compound was administered also by Gavage. Five hours after the administration of indomethacin the animals were decapitated and the stomachs removed. The stomachs were washed with distilled water, blotted on gauze, cut along the larger curvature, and the contents rinsed with distilled water. The stomachs were spread out, pinned on a cork and visualized under magnifying glass for ulcers. The criteria for scoring of ulcers was as previously reported. [Abdel-Galil et al. Brit. J. Pharmac. Chemotherapy 33:1-14 (1968)].
1 Petechial hemmorhage or pin point ulcer
3 Many ulcers, a few large
4 Many ulcers, mainly large
Control animals treated with indomethacin but not test compound consistently give scores of about 3.0-3.5. Control animals treated with neither indomethacin nor test compound give scores of about 0.5-0.8. Compounds producing a score of 2.5 or lower are considered to be active.

gastric acid secretion = gastric acid secretion inhibition, "Shay rat" procedure; assay type: in vivo, rats (male, CFE strain); details: intraduodenal dose 100 mg./kg. of body weight; 20% or more considered active
Method: The novel compounds of the present invention are also effective inhibitors of gastric acid secretion and of ulcer development in experimental animals, and thus are potentially valuable as agents for the control of gastric acid secretion and of gastric erosion and an anti-ulcer agents. Gastric acid secretion inhibitory action is usually measured by the "Shay rat" procedure^(1,2) with some modifications as follows.
The rats (male, CFE strain) were starved for 48 hours (water was given ad libitum) to permit evacuation of stomach contents. On the morning of the experiment, under ether anesthesia, the abdominal region was shaved and a midline incision (1-1 1/2") was made with a scapel. […]
The abdominal cavity was exposed by cutting with scissors and the esophagus close to the stomach was clamped off with a hemostat, the stomach was removed by cutting above the hemostat (the esophagus was cut) and between the two sutures. […] The supernatant was collected, volume measured and recorded, 2 drops of a phenolphthalein indicator (1% in 95% ethanol) were added and the solution was titrated with 0.02N NaOH (or with 0.04N NaOH when large volumes of stomach contents were encountered) to pH 8.4 (because of usual coloring of the stomach contents, phenolphthalein was only used to permit visual indication that the end point was near) and the amount of acid present was calculated. […]

[2] = total oral dose 25 mg./kg., control score 3.2

Q: With CCCCCC(O)/C=C/[C@H]1CCC(=O)[C@@H]1CCCCCC(CC)C(=O)O (relative stereo) as the molecule, how does the “Score, Treated” value ([1]; total oral dose 50 mg./kg., control score 3.0) read?
A: 2.2

Q: With CCCCCC(O)/C=C/[C@H]1CCC(=O)[C@]1(C)CCCCCCC(=O)O (relative stereo) [8β-methyl-9-oxo-15-hydroxy-13-trans-prostenoic acid] as the molecule, how does the “Score, Treated” value ([1]; total oral dose 12.5 mg./kg., control score 3.0) read?
A: 2.0

Q: How did the “Score, Treated” value [1, 2] turn out when CCCCC[C@@H](O)/C=C/[C@H]1CCC(=O)[C@@H]1CCCCSCC(=O)O (relative stereo) [9-oxo-3-thia-15-epi-hydroxy-13-trans-prostenoic acid] was run?
A: 2.3

Q: For CCCCCC(O)/C=C/[C@H]1CCC(=O)[C@@H]1CCCCC(C)(C)CC(=O)O (relative stereo) [9-oxo-15-hydroxy-3,3-dimethyl-13-trans-prostenoic acid], which “Percent Inhibition of gastric acid secretion” value (gastric acid secretion) is on record?
A: 51%

Q: Which “Score, Treated” value [1, 2] does the source give for CCCCCC(O)/C=C/[C@H]1CCC(=O)[C@@H]1CCCCSCC(=O)O (relative stereo) [9-oxo-15-hydroxy-3-thia-13-trans-prostenoic acid] here?
A: 1.8

Q: How did the “Score, Treated” value ([1]; total oral dose 100 mg./kg., control score 3.0) turn out when CCCCCC(O)/C=C\[C@H]1CCC(=O)[C@@H]1CCCCCCC(=O)O (relative stereo) [9-oxo-15-hydroxy-13-cis-prostenoic acid, 15-hydroxy-9-oxo-13-cis-prostenoic acid] was run?
A: 1.3

Q: For CCCCC(CC)C(O)/C=C/[C@H]1CCC(=O)[C@@H]1CCCCCCC(=O)O (relative stereo) [9-oxo-15-hydroxy-16-ethyl-13-trans-prostenoic acid], which “Score, Treated” value [1, 2] is on record?
A: 1.7
